Source: US11697650B2, “Compounds having tetrahydroindolizine-1-carboxamide as BCL-2 inhibitors” (Eil Therapeutics, Inc., priority 2021, dated 2023)

What was measured:
[1] = Cell viability assay (CellTiter-Glo), HEK293; assay type: cell-based; conditions: human, HEK293 cells, read-out: HEK293 (CC50 code)
Description: (§1) Culture medium for HEK293—DMEM (PanEco, Cat #C420) was used. RPMI-1640 (PanEco, Cat #C363) was used for the rest of the cell lines.
(§2) Compounds were prepared as 200× stocks with serial dilution in 100% DMSO with a final concentration of 1×.
(§3) […] were dispersed in 40 μL aliquots in 384-well plates at a concentration of 2000 cells per well for HEK293 and at a concentration of 4000 cells per well for the rest of the cell lines using a robotic station Biomek (Beckman). Before adding compounds, the cells were incubated at 37° C. (HEK293 were incubated for a day before adding compounds).
(§4) A dilution plate was prepared by pouring 78 μL of the appropriate culture medium using a robotic station Biomek (Beckman). Sequentially, using a robotic station, 2 μL of substances were taken and added to 78 μL of culture medium (dilution of compounds 40×). 10 μL aliquots were taken and added to the plates of the cells (dilution of compounds 5×). The plates were incubated for 3 days at a temperature 37° C. After 3 days, 10 μL of CellTiter-Glo (Promega) was added to the cells and the luminescence was measured.

[2] = test system: caspase-3 and -7 activities in RS4-11 cells; assay: Caspase-3/7 activation (Caspase-Glo 3/7) in RS4-11 cells; assay type: cell-based; conditions: Homo sapiens, 3.5 h incubation, read-out: Cas-3/7 (EC50 code)
Description: The Caspase-Glo 3/7 Assay is homogeneous, luminescent assay that measures caspase-3 and -7 activities. The assay provides a luminogenic caspase-3/7 substrate, which contains the tetrapeptide sequence DEVD, in a reagent optimized for caspase activity.
Incubate RS4-11 cells with varying concentrations of test compounds for 3.5 h in a humidified incubator at 37° C. and 5% CO2 and 30 min at r.t. Add 15 μl Caspase-Glo reagent to each well and incubate the plate for 30 min at r.t. Read on ClarioStar Plus instrument.
Promega Caspase-Glo (Promega, #8212); Frozen RS4-11 cells; 384-well white plate (Corning, #3570).
ClarioStar Plus; Biomek FX for liquid handling (Beckman Coulter).

MOLT-4 cells = assay: Cell viability assay (CellTiter-Glo), MOLT-4; assay type: cell-based; conditions: Homo sapiens, 72 h, 3 days, read-out: MOLT-4 (CC50 code)
Description: as §1, §2, §3, §4

BCL-2 = BCL-2 (Homo sapiens (Human), UniProt P10415); assay: BCL-2 TR-FRET Assay (primary PPI inhibition); assay type: binding; conditions: 60 min incubation; read-out: BCL2 (IC50 code, BCL-2 TR-FRET)
Sequence of BCL-2 (P10415 whole entry): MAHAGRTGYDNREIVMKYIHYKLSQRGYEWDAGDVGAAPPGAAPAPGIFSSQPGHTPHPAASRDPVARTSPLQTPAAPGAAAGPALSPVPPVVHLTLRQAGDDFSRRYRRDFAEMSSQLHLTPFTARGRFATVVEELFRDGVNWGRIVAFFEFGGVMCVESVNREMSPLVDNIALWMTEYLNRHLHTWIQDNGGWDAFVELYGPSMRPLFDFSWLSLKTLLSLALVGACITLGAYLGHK
Description: BCL-2 TR-FRET Assay (BPS Bioscience, #50222)
(§5) The following assay concentrations and times were used: 3 ng BCL-2, 5 μl of 1:100 anti-His Tb-labeled donor, 5 μl of 1:100 Dye-labeled acceptor, 5 μl of 1:40 BCL-2 Peptide Ligand, and 2 ul of test compound, with 60 min incubation time. The results of the assay were read using a Clariostar (BMG Labtech) plate reader with the following parameters: TR FRET, 340ex/620 and 665em; 60 μsec Delay; and 500 μsec integration.

BCL-XL = BCL-XL (Homo sapiens (Human), UniProt Q07817); assay: BCL-XL TR-FRET Assay (primary PPI inhibition); assay type: binding; conditions: 60 min incubation; read-out: BCLxL (IC50 code, BCL-XL TR-FRET)
Sequence of BCL-XL (Q07817 whole entry): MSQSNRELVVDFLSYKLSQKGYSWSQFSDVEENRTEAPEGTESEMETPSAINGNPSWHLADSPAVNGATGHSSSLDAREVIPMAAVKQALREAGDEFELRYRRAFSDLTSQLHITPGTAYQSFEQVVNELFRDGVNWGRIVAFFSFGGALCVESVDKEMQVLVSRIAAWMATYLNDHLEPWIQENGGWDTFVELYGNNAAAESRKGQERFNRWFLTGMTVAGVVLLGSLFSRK
Description: BCL-XL TR-FRET Assay (BPS Bioscience, #50223)
as §5, with “used: 10.5” for “used: 3”, “ng BCL-XL,” for “ng BCL-2,”, “of 1:80 BCL-XL” for “of 1:40 BCL-2”, “2 μl” for “2 ul”

RS4-11 cells = assay: Cell viability assay (CellTiter-Glo), RS4-11; assay type: cell-based; conditions: Homo sapiens, 72 h, 3 days, read-out: RS4-11 (CC50 code)
Description: as §1, §2, §3, §4

Compound	CC50 at 3 days [1] [nM]	EC50 [2] [nM]	CC50 (MOLT-4 cells) [nM]	IC50 (BCL-2) [nM]	IC50 (BCL-XL) [nM]	CC50 (RS4-11 cells) [nM]
COc1cccc(CN(C(=O)c2cc(-c3cc4c(cc3C(=O)N3Cc5ccccc5C[C@H]3CN3CCOCC3)OCO4)n3c2CCCC3)c2ccc(O)cc2)c1C [Compound 3, N-(4-hydroxyphenyl)-N-(3-methoxy-2-methylbenzyl)-3-(6-{[(3S)-3-(morpholin-4-ylmethyl)-3,4-dihydroisoquinolin-2(1H)-yl]carbonyl}-1,3-benzodioxol-5-yl)-5,6,7,8-tetrahydroindolizine-1-carboxamide]	> 25000	≤ 100	≤ 2000	≤ 5	≤ 2000	≤ 100
Cn1cnnc1CN(C(=O)c1cc(-c2cc3c(cc2C(=O)N2Cc4ccccc4C[C@H]2CN2CCOCC2)OCO3)n2c1CCCC2)c1ccc(O)cc1 [Compound 48, N-(4-Hydroxyphenyl)-N-[(4-methyl-1,2,4-triazol-3-yl)methyl]-3-[6-[(3S)-3-(morpholinomethyl)-3,4-dihydro-1H-isoquinoline-2-carbonyl]-1,3-benzodioxol-5-yl]-5,6,7,8-tetrahydroindolizine-1-carboxamide]	10000 to 25000	≤ 100	2000 to 10000	≤ 5	≤ 2000	≤ 100
O=C(c1cc(-c2cc3c(cc2C(=O)N2Cc4ccccc4C[C@H]2CN2CCOCC2)OCO3)n2c1CCCC2)N(Cc1ccccc1)c1ccc(O)cc1 [Compound 15, N-benzyl-N-(4-hydroxyphenyl)-3-(6-{[(3S)-3-(morpholin-4-ylmethyl)-3,4-dihydroisoquinolin-2(1H)-yl]carbonyl}-1,3-benzodioxol-5-yl)-5,6,7,8-tetrahydroindolizine-1-carboxamide]	> 25000	100 to 250	≤ 2000	5 to 10	≤ 2000	100 to 200
Cc1cccc(CN(C(=O)c2cc(-c3cc4c(cc3C(=O)N3Cc5ccccc5C[C@H]3CN3CCOCC3)OCO4)n3c2CCCC3)c2ccc(O)cc2)c1 [Compound 14, N-(4-hydroxyphenyl)-N-(3-methylbenzyl)-3-(6-{[(3S)-3-(morpholin-4-ylmethyl)-3,4-dihydroisoquinolin-2(1H)-yl]carbonyl}-1,3-benzodioxol-5-yl)-5,6,7,8-tetrahydroindolizine-1-carboxamide]	> 25000	> 250	2000 to 10000	5 to 10	2000 to 4000	≤ 100
O=C(c1cc(-c2cc3c(cc2C(=O)N2Cc4ccccc4C[C@H]2CN2CCOCC2)OCO3)n2c1CCCC2)N(Cc1cccc(F)c1)c1ccc(O)cc1 [Compound 21, N-(3-fluorobenzyl)-N-(4-hydroxyphenyl)-3-(6-{[(3S)-3-(morpholin-4-ylmethyl)-3,4-dihydroisoquinolin-2(1H)-yl]carbonyl}-1,3-benzodioxol-5-yl)-5,6,7,8-tetrahydroindolizine-1-carboxamide]	> 25000	> 250	> 10000	10 to 50	2000 to 4000	100 to 200
O=C(c1cc(-c2cc3c(cc2C(=O)N2Cc4ccccc4C[C@H]2CN2CCOCC2)OCO3)n2c1CCCC2)N(Cc1ccc(F)cc1)c1ccc(O)cc1 [Compound 17, N-(4-fluorobenzyl)-N-(4-hydroxyphenyl)-3-(6-{[(3S)-3-(morpholin-4-ylmethyl)-3,4-dihydroisoquinolin-2(1H)-yl]carbonyl}-1,3-benzodioxol-5-yl)-5,6,7,8-tetrahydroindolizine-1-carboxamide]	> 25000	> 250	> 10000	10 to 50	–	> 200
O=C(c1cc(-c2cc3c(cc2C(=O)N2Cc4ccccc4C[C@H]2CN2CCOCC2)OCO3)n2c1CCCC2)N(Cc1c(F)cccc1F)c1ccc(O)cc1 [Compound 19, N-(2,6-difluorobenzyl)-N-(4-hydroxyphenyl)-3-(6-{[(3S)-3-(morpholin-4-ylmethyl)-3,4-dihydroisoquinolin-2(1H)-yl]carbonyl}-1,3-benzodioxol-5-yl)-5,6,7,8-tetrahydroindolizine-1-carboxamide]	> 25000	> 250	2000 to 10000	5 to 10	> 4000	> 200
O=C(c1cc(-c2cc3c(cc2C(=O)N2Cc4ccccc4C[C@H]2CN2CCOCC2)OCO3)n2c1CCCC2)N(Cc1cccc(C(F)(F)F)c1)c1ccc(O)cc1 [Compound 16, N-(4-hydroxyphenyl)-3-(6-{[(3S)-3-(morpholin-4-ylmethyl)-3,4-dihydroisoquinolin-2(1H)-yl]carbonyl}-1,3-benzodioxol-5-yl)-N-[3-(trifluoromethyl)benzyl]-5,6,7,8-tetrahydroindolizine-1-carboxamide]	> 25000	100 to 250	> 10000	10 to 50	> 4000	100 to 200
O=C(c1cc(-c2cc3c(cc2C(=O)N2Cc4ccccc4C[C@H]2CN2CCOCC2)OCO3)n2c1CCCC2)N(Cc1ccc(C(F)(F)F)cc1)c1ccc(O)cc1 [Compound 24, N-(4-hydroxyphenyl)-3-(6-{[(3S)-3-(morpholin-4-ylmethyl)-3,4-dihydroisoquinolin-2(1H)-yl]carbonyl}-1,3-benzodioxol-5-yl)-N-[4-(trifluoromethyl)benzyl]-5,6,7,8-tetrahydroindolizine-1-carboxamide]	≤ 10000	> 250	2000 to 10000	10 to 50	> 4000	> 200
Cc1ccccc1CN(C(=O)c1cc(-c2cc3c(cc2C(=O)N2Cc4ccccc4C[C@H]2CN2CCOCC2)OCO3)n2c1CCCC2)c1ccc(O)cc1 [Compound 4, N-(4-hydroxyphenyl)-N-(2-methylbenzyl)-3-(6-{[(3S)-3-(morpholin-4-ylmethyl)-3,4-dihydroisoquinolin-2(1H)-yl]carbonyl}-1,3-benzodioxol-5-yl)-5,6,7,8-tetrahydroindolizine-1-carboxamide]	> 25000	≤ 100	> 10000	≤ 5	≤ 2000	≤ 100
Cc1cccc(Cl)c1CN(C(=O)c1cc(-c2cc3c(cc2C(=O)N2Cc4ccccc4C[C@H]2CN2CCOCC2)OCO3)n2c1CCCC2)c1ccc(O)cc1 [Compound 34, N-(2-chloro-6-methylbenzyl)-N-(4-hydroxyphenyl)-3-(6-{[(3S)-3-(morpholin-4-ylmethyl)-3,4-dihydroisoquinolin-2(1H)-yl]carbonyl}-1,3-benzodioxol-5-yl)-5,6,7,8-tetrahydroindolizine-1-carboxamide]	> 25000	> 250	≤ 2000	> 50	> 4000	> 200
COc1ccccc1CN(C(=O)c1cc(-c2cc3c(cc2C(=O)N2Cc4ccccc4C[C@H]2CN2CCOCC2)OCO3)n2c1CCCC2)c1ccc(O)cc1 [Compound 31, N-(4-hydroxyphenyl)-N-(2-methoxybenzyl)-3-(6-{[(3S)-3-(morpholin-4-ylmethyl)-3,4-dihydroisoquinolin-2(1H)-yl]carbonyl}-1,3-benzodioxol-5-yl)-5,6,7,8-tetrahydroindolizine-1-carboxamide]	> 25000	≤ 100	≤ 2000	≤ 5	≤ 2000	≤ 100
